# Tests used:
# Format in all cases: in vivo
# [1] = tested on: SOD1-G93A mouse model of ALS; assay: Body weight in SOD1-G93A mice under ketamine
# Source text: (§1) Testing can be performed in SOD1-G93A mice as follows. Body weight and grip strength during a hanging wire test can be measured 3 days a week beginning at 90 days of age (presymptomatic). Drug injections can be made immediately after motor testing. Mice can be tested until they reach end-stage as defined by loss of righting reflex for 30 seconds or if they are found dead in their cage. At death, the muscles (soleus, tibialis anterior, and diaphragm) and brains can be harvested for histological analyses. Comparisons of neuromuscular junction innervation and myosin heavy chain isoforms can be made between the treatment groups. Experiments can determine cortical motor neuronal integrity using standard histological methods.
# (§2) Experiments were performed to determine the effects of daily sub-anesthetic doses (e.g., less than 100 mg/kg) of ketamine on the SOD1-G93A mouse model of ALS. The method included administering two doses of ketamine (e.g., 10 mg/kg and 30 mg/kg) and a saline vehicle to three groups of SOD1-G93A mice per day for 5 days per week beginning at 90 days of age. The method included measuring body weight, grip strength, and survival.
# The three groups (e.g., 12 mice per group with intraperitoneal injection): vehicle (e.g., 0), 10 mg/kg (e.g., 10), and 30 mg/kg (e.g., 30) are shown (p=0.06). […] As such, the 10 mg/kg dosage may be useful for ALS patients. […] Accordingly, increasing the amount of ketamine administered may increase the effects described herein. Any increase in life (e.g., probability of survival) can be beneficial, which may be accomplished by treatment with the ketamine compound.
# [2] = tested on: SOD1-G93A mouse model of ALS; assay: Latency between 20% loss of body weight and death in SOD1-G93A mice; conditions: for latency between 20% loss of body weight and death: FIG. 3 (vehicle about 2 days)
# Method: as §2
# Additionally, the latency in days between the day in which each mouse reached 80% of its initial body weight (i.e., 20% reduction) and the day of death as defined above was calculated. […] Accordingly, higher dosages may still provide for longer latency of life, or longer life expectancy.
# [3] = tested on: SOD1-G93A mouse model of ALS; assay: Survival (day of death) in SOD1-G93A mice
# Source text: as §1, §2
# As shown, treatment with the ketamine compound appears to provide a higher probability of survival for a longer period of time for both the 10 mg/kg and 30 mg/kg dosages (p=0.06; FIG. 2). […]
# [4] = tested on: SOD1-G93A mouse model of ALS; assay: Grip strength, hanging wire test, SOD1-G93A mice; conditions: 10 mg/kg and 30 mg/kg vs saline vehicle, 5 days per week from 90 days of age; data not shown
# Source text: as §1, §2
smiles,measurement,setting,value
"CNC1(c2ccccc2Cl)CCCCC1=O (stereo not shown) [ketamine, 2-(2-chlorophenyl)-2-(methylamino)cyclohexan-1-one]",effects on body weight,"[1]; 10 mg/kg and 30 mg/kg vs saline vehicle, 5 days per week from 90 days of age, data not shown",no significant effects
same,probability of survival curve for day body weight fell below 80%,"[1]; 10 mg/kg intraperitoneal vs vehicle, FIG. 1",improvement in the probability of survival
same,"loss of body weight (muscle mass), trend in survival curve","[1]; 30 mg/kg intraperitoneal vs 10 mg/kg or without ketamine, FIG. 1",delays loss of body weight (muscle mass) for a longer period of time
same,"survival analysis: day in which body weight fell below 80%, difference between the groups","[1]; vehicle, 10 mg/kg, 30 mg/kg, intraperitoneal, 12 mice per group, FIG. 1, p=0.06",no significant difference
same,longer life expectancy than no treatment,[2]; 10 mg/kg vs vehicle,about 4 days
same,latency between 20% loss of body weight and death,[2]; 10 mg/kg,about 6 days
same,longer life expectancy over the 10 mg/kg treatment,[2]; 30 mg/kg vs 10 mg/kg,about 4 days
same,longer life expectancy than no treatment,[2]; 30 mg/kg vs vehicle,about 8 days
same,latency between 20% loss of body weight and death,[2]; 30 mg/kg,about 10 days
same,"latency between 20% loss of body weight and death, effect of dose","[2]; vehicle, 10 and 30 mg/kg, ANOVA p<0.05, FIG. 3",statistically significant dose-dependent increase
same,probability of survival (day of death: loss of righting reflex for 30 seconds or found dead),"[3]; 10 mg/kg vs vehicle, FIG. 2, overall p=0.06",some improvement over the vehicle
same,probability of survival (day of death: loss of righting reflex for 30 seconds or found dead),"[3]; 30 mg/kg vs vehicle, FIG. 2, p<0.05",survived significantly longer than the vehicle-treated group
same,effects on grip strength using the hanging wire test,[4],no significant effects

# — patent publication US12128012B2, “Ketamine treatment for amyotrophic lateral sclerosis” (University of Kansas, priority 2020, dated 2024)
